Values quoted from earlier work as cited in patent US20140199405A1, “METHOD FOR TREATING CANCER BASED ON MUTATION STATUS OF K-RAS” (priority 2013, published 2014).

Key:
[1] = test system: locally advanced pancreatic cancer; settings: patients with locally advanced pancreatic cancer
[2] = test system: pancreatic cancer; settings: combination versus gemcitabine monotherapy

SMILES | median overall survival [1] [months] | median time to disease progression [1] [months] | median overall survival [2] [months] | median progression free survival [2] [months]
O=c1[nH]cc(F)c(=O)[nH]1 [5-FU, 5-fluororuracil] | 4.2 | 0.9 | – | –
Nc1ccn([C@@H]2O[C@H](CO)[C@@H](O)C2(F)F)c(=O)n1 [gemcitabine] | 5.7 | 2.1 | 6.0 | 3.5
